Measurements taken from patent publication US12209079B2 (GENERAL INCORPORATED ASSOCIATION PHARMA VALLEY PROJECT …, priority 2017, dated 2025).

Columns and labels:
[1] = target: rhIDO (recombinant human IDO) (Homo sapiens, UniProt P14902); assay: Enzyme assay using rhIDO (rate of kynurenine production); type: biochemical; conditions: 2 h; final concentration of the compound 10 μM; rate relative to reaction without compound; read-out: rhIDO-mediated kynurenine production
Method in brief: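 rhIDO preincubated with compound 10 min at 37 °C in phosphate buffer with ascorbate, methylene blue and catalase; started with 2 mM tryptophan solution (stock) and run 120 min at 37 °C. Stopped with TCA and heated to convert N-formylkynurenine; kynurenine read at 490 nm after p-dimethylbenzaldehyde, background-subtracted, as % of no-compound control.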

IDO in A431 cells = target: T1, IDO in A431 cells (Homo sapiens, UniProt P14902); assay: IDO cell-based assay, kynurenine production in IFN-γ stimulated A431 cells; conditions: A-431, 24 h; final concentration of the compound 10 μM; rate relative to culture without compound
T1 construct: endogenous in cells; host or cells: A431 cells, IFN-γ stimulated
T1 sequence (P14902 whole entry): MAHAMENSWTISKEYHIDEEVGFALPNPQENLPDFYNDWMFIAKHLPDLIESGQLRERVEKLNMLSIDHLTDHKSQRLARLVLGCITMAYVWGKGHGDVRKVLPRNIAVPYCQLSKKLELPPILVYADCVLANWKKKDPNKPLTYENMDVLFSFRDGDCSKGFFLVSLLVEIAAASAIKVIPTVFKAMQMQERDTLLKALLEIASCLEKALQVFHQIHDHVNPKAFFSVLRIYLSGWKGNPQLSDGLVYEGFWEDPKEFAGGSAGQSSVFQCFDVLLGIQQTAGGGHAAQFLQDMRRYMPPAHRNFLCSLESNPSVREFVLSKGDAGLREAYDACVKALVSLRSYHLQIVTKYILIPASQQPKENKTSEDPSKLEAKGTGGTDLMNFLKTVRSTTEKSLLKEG
Method in brief: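 A431 cells were cultured 24 h, then preincubated 1 h with compound in medium containing 178 μM L-tryptophan, and stimulated with IFN-γ (diluted to 100 ng/mL before addition) for 24 h. Kynurenine was measured by p-dimethylbenzaldehyde absorbance at 460 nm, background-subtracted, and expressed as % production versus no-compound control.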

TDO in A172 cells = target: T2, TDO in A172 cells (Homo sapiens, UniProt P48775); assay: TDO cell-based assay, kynurenine production in A172 cells; conditions: A 172; final concentration of the compound 10 μM; rate relative to culture without compound
T2 construct: endogenous in cells; host or cells: A172 cells
T2 sequence (P48775 whole entry): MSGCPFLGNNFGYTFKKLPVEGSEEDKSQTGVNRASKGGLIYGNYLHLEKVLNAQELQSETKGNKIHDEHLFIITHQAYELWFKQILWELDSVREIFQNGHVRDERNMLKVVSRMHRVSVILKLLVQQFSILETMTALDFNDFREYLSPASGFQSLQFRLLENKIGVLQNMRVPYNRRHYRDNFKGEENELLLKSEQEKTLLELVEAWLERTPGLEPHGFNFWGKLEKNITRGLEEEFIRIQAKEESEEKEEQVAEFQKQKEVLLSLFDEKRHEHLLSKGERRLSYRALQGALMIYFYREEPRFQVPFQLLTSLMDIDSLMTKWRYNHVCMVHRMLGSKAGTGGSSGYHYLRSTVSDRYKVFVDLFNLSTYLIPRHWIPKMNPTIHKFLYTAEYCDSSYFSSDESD
Method in brief: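 A172 cells were preincubated with compound for 1 h, then given L-tryptophan (final 524 μM) for 24 h at 37 °C. Kynurenine was read at 460 nm after p-dimethylbenzaldehyde/TCA reagent, background-subtracted, and expressed as % of no-compound production.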

[2] = target: rhTDO (recombinant human TDO) (Homo sapiens, UniProt P48775); assay: Enzyme assay using rhTDO (rate of kynurenine production); type: biochemical; conditions: 2 h; final concentration of the compound 10 μM; rate relative to reaction without compound; read-out: rhTDO-mediated kynurenine production
Sequence of rhTDO (recombinant human TDO) (P48775 whole entry): as above
Method in brief: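 Kynurenine output, as percent of untreated control after background subtraction, read at 490 nm with p-dimethylbenzaldehyde following TCA quench and 15 min heating at 50 °C. Reaction: rhTDO with compound, 10 min preincubation then 120 min at 37 °C, started by 20 mM tryptophan stock, in phosphate/ascorbate/methylene blue/catalase.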

Sequence of rhIDO (recombinant human IDO) (P14902 whole entry): as the sequence (P14902 whole entry) above

Row | Compound | remaining activity at 10 µM [1] | remaining activity at 10 µM (IDO in A431 cells) | remaining activity at 10 µM (TDO in A172 cells) | remaining activity at 10 µM [2]
1 | FC(F)(F)c1ccc(CCN2CN=C(SCc3ccc(Br)cc3CSC3=NCN(CCc4ccc(C(F)(F)F)cc4)CN3)NC2)cc1 [Compound 141, 6,6′-(((4-Bromo-1,2-phenylene)bis(methylene))bis(sulfanediyl))bis(3-(4-(trifluoromethyl)phenethyl)-1,2,3,4-tetrahydro-1,3,5-triazine)] | 21% | 5% | 11% | 14%
2 | FC(F)(F)c1ccc(CCN2CN=C(SCc3ccccc3CSC3=NCN(CCc4ccc(C(F)(F)F)cc4)CN3)NC2)cc1 [Compound 142, 1,2-Bis (((5-(4-(Trifluoromethyl)phenethyl)-1,4,5,6-tetrahydro-1,3,5-triazin-2-yl)thio)methyl)benzene] | 43% | 16% | 6% | 18%
3 | FC(F)(F)c1ccc(CCN2CN=C(SCc3cc(Cl)c(Cl)cc3CSC3=NCN(CCc4ccc(C(F)(F)F)cc4)CN3)NC2)cc1 [Compound 143, 6,6′-(((4,5-Dichloro-1,2-phenylene)bis(methylene))bis(sulfanediyl))bis(3-(4-(trifluoromethyl)phenethyl)-1,2,3,4-tetrahydro-1,3,5-triazine)] | 17% | 9% | 7% | 6%
4 | Fc1ccc(CN2CN=C(SCc3ccc(Br)cc3CSC3=NCN(Cc4ccc(F)c(Cl)c4)CN3)NC2)cc1Cl [Compound 144, 6,6′-(((4-Bromo-1,2-phenylene)bis(methylene))bis(sulfanediyl))bis(3-(3-chloro-4-fluorobenzyl)-1,2,3,4-tetrahydro-1,3,5-triazine)] | 15% | 6% | 18% | 19%
5 | Fc1ccc(CN2CN=C(SCc3ccccc3CSC3=NCN(Cc4ccc(F)c(Cl)c4)CN3)NC2)cc1Cl [Compound 145, 1,2-Bis(((5-(3-Chloro-4-fluorobenzyl)-1,4,5,6-tetrahydro-1,3,5-triazin-2-yl)thio)methyl)benzene] | 69% | 18% | 12% | 40%
6 | Fc1ccc(CSC2=NCN(Cc3ccc(F)c(Cl)c3)CN2)c(CSC2=NCN(Cc3ccc(F)c(Cl)c3)CN2)c1 [Compound 146, 6,6′-(((4-Fluoro-1,2-phenylene)bis(methylene))bis(sulfanediyl))bis(3-(3-chloro-4-fluorobenzyl)-1,2,3,4-tetrahydro-1,3,5-triazine)] | 54% | 16% | 17% | 26%
7 | COc1ccc(CCN2CN=C(SCc3ccc(F)cc3CSC3=NCN(CCc4ccc(OC)cc4)CN3)NC2)cc1 [Compound 147, 6,6′-(((4-Fluoro-1,2-phenylene)bis(methylene))bis(sulfanediyl))bis(3-(4-methoxyphenethyl)-1,2,3,4-tetrahydro-1,3,5-triazine)] | 32% | 16% | 16% | 10%
8 | COc1ccc(CCN2CN=C(SCc3ccc(Br)cc3CSC3=NCN(CCc4ccc(OC)cc4)CN3)NC2)cc1 [Compound 148, 6,6′-(((4-Bromo-1,2-phenylene)bis(methylene))bis(sulfanediyl))bis(3-(4-methoxyphenethyl)-1,2,3,4-tetrahydro-1,3,5-triazine)] | 13% | 7% | 18% | 8%
9 | FC(F)(F)c1cccc(CCN2CN=C(SCc3ccc(Br)cc3CSC3=NCN(CCc4cccc(C(F)(F)F)c4)CN3)NC2)c1 [Compound 149, 6,6′-(((4-Bromo-1,2-phenylene)bis(methylene))bis(sulfanediyl))bis(3-(3-(trifluoromethyl)phenethyl)-1,2,3,4-tetrahydro-1,3,5-triazine)] | 8% | 7% | 17% | 11%
